Measurements taken from the supplement of paper PMC10883282.

How the values were obtained:
Assay in all cases: relative viability vs DMSO control (72 h) (fraction); higher = more viable cells
SYO-1 = test system: SYO-1
In short: (§1)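 Sarcoma cell lines went into 384-well plates at densities chosen to reach 80–90% confluence. After 24 h, each well received 2.5 µl of serially diluted compound, with source plates running from 10 mM to 0.0002 mM, and the plates were kept 72 h at 37 °C, 5% CO2, alongside 0.1% DMSO vehicle and a 5 µM positive control. Relative viability was derived from ATPLite readings as percent growth and averaged over up to triplicate wells. The data were then rescaled so that 1 stands for full and 0 for none.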

KHOS-NP = test system: KHOS-NP
In short: as §1

SW684 = test system: SW684
In short: as §1

RD-ES = test system: RD-ES
In short: as §1

HT1080 = test system: HT1080
In short: as §1

CCc1nc(C(N)=O)c(Nc2ccc(N3CCC(N4CCN(C)CC4)CC3)c(OC)c2)nc1NC1CCOCC1 [Gilteritinib]
relative viability
Conditions	HT1080	KHOS-NP	RD-ES	SW684	SYO-1
60 pM	1.08	1.08	0.986	1.08	0.959
0.00018 µM	1.032	1.12	0.961	1.13	0.921
0.00053 µM	0.999	1.07	0.9574	1.11	0.915
0.0016 µM	1.04	1.1	0.968	1.14	0.848
0.0048 µM	1.07	1.061	0.963	1.15	0.815
0.014 µM	1.05	1.06	0.938	1.13	0.791
0.043 µM	1.05	1.03	0.88	1.09	0.734
0.13 µM	1.05	1.02	0.687	0.889	0.637
0.389 µM	1	0.959	0.316	0.633	0.481
1.167 µM	0.6791	0.83	0.11	0.506	0.389
3.5 µM	0.595	0.695	0.14	0.491	0.369

O=S(=O)(c1cccc2c(O)nccc12)N1CCCNCC1 [Hydroxyfasudil]
relative viability
Conditions	HT1080	KHOS-NP	RD-ES	SW684	SYO-1
0.00017 µM	1.1	1.09	0.996	1.16	1
0.00051 µM	1.09	1.09	1.02	1.21	0.996
0.00152 µM	1.13	1.086	1	1.2	0.97
0.00457 µM	1.06	1.1	1.01	1.16	0.993
0.01372 µM	1.1	1.09	1.01	1.16	0.96
0.04115 µM	1.099	1.1	1.011	1.15	0.96
0.1235 µM	1.102	1.08	1.03	1.14	0.983
0.3704 µM	1.1	1.07	1.04	1.15	0.894
1.111 µM	1.139	1.07	1.03	1.12	0.919
3.333 µM	1.1	1.049	1.04	1.06	0.904
10 µM	1.1	1.04	1.06	1.02	0.846

C#Cc1cccc(Nc2ncnc3cc4c(cc23)OCCOCCOCCO4)c1 [Icotinib]
relative viability
Conditions	HT1080	KHOS-NP	RD-ES	SW684	SYO-1
0.00017 µM	1.08	1.083	0.983	1.172	1.01
0.00051 µM	1.11	1.09	0.998	1.18	1.03
0.00152 µM	1.09	1.08	0.989	1.2	1.01
0.00457 µM	1.1	1.09	1.01	1.19	0.968
0.01372 µM	1.11	1.09	0.991	1.2	0.989
0.04115 µM	1.08	1.09	0.982	1.18	0.979
0.1235 µM	1.1	1.08	0.976	1.18	0.982
0.3704 µM	1.11	1.09	0.991	1.18	0.98
1.111 µM	1.069	1.096	0.973	1.17	0.966
3.333 µM	1.08	1.08	0.977	1.16	0.892
10 µM	1.06	1.07	0.959	1.13	0.855
